Patent EP0540969B1, “Derivatives of structurally modified VIP and pharmaceutical compositions containing them” (YEDA RESEARCH AND DEVELOPMENT CO. LTD., priority 1991, dated 1998)

How the values were obtained:
[1] = test system: castrated rats; assay: Biological tests for penile reflexes (latency and number of E2 and cups) after transdermal application; assay type: in vivo; conditions: ointment with Sefsol 318 carrier; for Number of E2: during the test period (Fig. 1C); for Number of Cups: during the test period (Fig. 1D)
Protocol: The following ointment compositions were prepared and tested for transdermal application of lipophilic conjugated modified VIP derivatives in accordance with the present invention. Similar conjugates of unmodified VIP derivatives were tested for comparison. • 1. Ointment containing glycerine as a carrier: The ointment was prepared as follows: 2 g glycerine + 10 mg stearoyl-VIP + 7 drops of DMSO (dimethylsulfoxide). Each rat received 30-50 µg of stearoyl-VIP in about 10 µl ointment. (GLY in Figure 1). • 2. Ointment containing a lubricant as a carrier: The ointment was prepared as above, only glycerine was replaced by lubricant (K-Y Lubricating Jelly, Johnson & Johnson, containing propylene glycol and glycerine), 7 drops of DMSO equals about 130 µl. (LUB in Figure 1). • 3. Ointment containing a lubricant and nitroglycerine as a carrier: Prepared as in (2) above with 1.7 ml nitroglycerine (1 mg/ml), (LUB-NTG in Figure 1). • 4. Ointment containing Sefsol 318™ (12) as a carrier: The ointment composition was: 31.2 µl 10% Sefsol 318™ (glyceryl monocaprylate), 0.24 mg stearoyl-VIP in 31.2 µl DMSO (1-2µl per animal) (SEFS in Figure 1) or 0.24 mg stearoyl -Nle^17-VIP in 31.2µl DMSO (SEFS in Fig. 1).
The biological tests involved measurements of penile reflexes in castrated rats following transdermal application of modified and native VIP conjugates. […] In a further set of experiments the effects of stearoyl-VIP compounded with Sefsol 318™ were compared with those of stearoyl -Nle^17-VIP compounded with Sefsol 318™.
Rats with reduced sexual potential due to castration were employed. Male rats (250-300 g, about three month old) were kept in a 12-hours light, 12-hours dark cycle. Experiments were always conducted within the dark period, 2-6 hours after the onset of darkness. Male rats were castrated and given partial testosterone replacement (4 µg/100 g body weight) in the form of daily injection for 14-21 consecutive days (the duration of the experiment). Experiments were conducted one week following surgery.
A procedure was utilized that employed the technique that measures sexual reflexes in the penis, which enables direct evaluation of penile erection following transdermal administration of the drug. Successful reproduction depends, in large part, upon the precise execution of temporally organized, functionally related behavioural units. In these experiments, we concentrated on the final stages of the erection process (reddening of the penis accompanied by its distension and extension leading to complete erection) and monitored the latency time to the first E2 and first cup (13).
For testing, each animal was restrained in a supine position with the anterior portion of its body enclosed in a loosely fitting cylinder (7 cm diam). After a belt was secured around the torso, the glans penis was extruded from its sheath and gently held perpendicular to the abdomen by a thin wooden applicator positioned at the posterior of the penis. The legs of the male were held by the observer and this position was maintained throughout the test period. The duration of the session was 45 minutes. The latencies and numbers of E2 and cups were recorded and plotted.
An E2 is defined as a complete erection which can be followed by cup in which the penile tip is turned into a cup-like structure, whereby the glands flare out such that the penis is wider in its distal portion than its base. This final stage requires E2 and is probably a pre-requisite for ejaculation (13). Using all the parameters one can obtain a reliable measure of the sexual activity of the tested rat.
Six to ten animals were tested in this paradigm for each variable. Control animals received ointment compositions without St-VIP or St-Nle^17-VIP.

[2] = Skin penetration and body distribution of 125I-labelled VIP derivatives after transdermal application in Sefsol 318; assay type: in vivo
Excerpt: These experiments were divided into two groups. In the first group of experiments we performed a time course of the distribution of radioactively labelled stearoyl-Nle^17-VIP (in Sefsol 318™), applied transdermally, in various organs of the body. In the second group of experiments we compared the penetration of four radioactively labelled VIP derivatives with Sefsol 318™ following transdermal application. Two to four animals were used for each data point. The derivatives were labelled with ^125I using the chloramine-T based method (14).
In the first group of experiments, stearoyl-Nle^17-VIP was radioactively labelled with ^125I. Each animal received 2.2 million CPM, in 6µl of the radioactive material+ 26µl ointment (ointment No. 4 in Example 5). Two animals were used for each time point in two independent experiments. To avoid oral absorbance, the animal mouth was sealed. At indicated times following topical application, animals were sacrificed and duplicate tissue samples were removed, weighed and counted in a gamma counter. Tissues measured were: lungs (LU), heart (HE), kidneys (KI), liver (LI) and intestine (IN).
In the second group of experiments compositions of Sefsol 318™ and VIP, St-VIP, Nle^17-VIP and St-Nle^17-VIP were prepared. The experiments were performed as in Figure 2 with the only difference that each animal received a 2.4 million CPM. 2-4 animals were utilized for each variable. Animals were sacrificed 30 minutes after the application of the drug.

[3] = Stability compared with the unmodified conjugate; assay type: physicochemical; conditions: compared with stearoyl-VIP in which the amino acid sequence was not altered
[4] = test system: rat; assay: Acute toxicology studies; assay type: in vivo; conditions: for gross side effects / mortality: dose of 7 mg/rat
Protocol: (§1) To assess the degree of toxicity and possible side effects of stearoyl-Nle^17-VIP, two types of studies were performed: 1. acute toxicology studies; 2. repeated dose toxicity studies.
(§2) The drug was prepared essentially as follows: 539 mg stearoyl-Nle^17-VIP+2.31 ml 10% Sefsol+2.31 ml 40% isopropanol. The experimental animal was the rat (160-300 g body weight).
(§3) In the acute toxicology studies, three routes of administration were chosen: 1. subcutaneous; 2. intravenous; 3. oral.

[5] = test system: rat; assay: Repeated dose toxicity studies, daily topical application; assay type: in vivo; conditions: daily topical application (to the sex organ), dose of 3.5 mg/animal
Protocol: as §1, §2, §3

| Compound | Latency to first E2 ([1]; 45 min session (Fig. 1A)) | Latency to first cup ([1]; 45 min session (Fig. 1B)) | Number of E2 [1] | Number of Cups [1] | tissue concentrations compared among VIP, St-VIP, Nle^17-VIP and St-Nle^17-VIP ([2]; in Sefsol 318, animals sacrificed 30 minutes after application (Fig. 3)) | peak deliveries (time after administration) ([2]; in Sefsol 318, topical, lungs, heart, kidneys, liver, intestine (Fig. 2)) | disappearance (time after administration) ([2]; in Sefsol 318, topical, tissue samples (Fig. 2)) | stability relative to stearoyl-VIP [3] | LD50 ([4]; intravenous injection) | gross side effects ([4]; oral administration) | mortality ([4]; oral administration) | gross side effects ([4]; subcutaneous administration) | mortality ([4]; subcutaneous administration) | mortality [5] | side effects [5] |
| --- | --- | --- | --- | --- | --- | --- | --- | --- | --- | --- | --- | --- | --- | --- | --- |
| stearoyl -norleucine^17-VIP [St-Nle^17-VIP] | about 1 minute | 10 min | 34 | 20 | highest concentrations | 15 to 60 min | 2.5 h | more stable | 7 mg/rat | no gross side effects | no mortality | no gross side effects | no mortality | no mortality | nor any side effects |
| CCCCCCCCCCCCCCCCCC(=O)N[C@@H](Cc1c[nH]cn1)C(=O)N[C@@H](CO)C(=O)N[C@@H](CC(=O)O)C(=O)N[C@@H](C)C(=O)N[C@H](C(=O)N[C@@H](Cc1ccccc1)C(=O)N[C@H](C(=O)N[C@@H](CC(=O)O)C(=O)N[C@@H](CC(N)=O)C(=O)N[C@@H](Cc1ccc(O)cc1)C(=O)N[C@H](C(=O)N[C@@H](CCCNC(=N)N)C(=O)N[C@@H](CC(C)C)C(=O)N[C@@H](CCCNC(=N)N)C(=O)N[C@@H](CCCCN)C(=O)N[C@@H](CCC(N)=O)C(=O)N[C@@H](CCSC)C(=O)N[C@@H](C)C(=O)N[C@H](C(=O)N[C@@H](CCCCN)C(=O)N[C@@H](CCCCN)C(=O)N[C@@H](Cc1ccc(O)cc1)C(=O)N[C@@H](CC(C)C)C(=O)N[C@@H](CC(N)=O)C(=O)N[C@@H](CO)C(=O)N[C@H](C(=O)N[C@@H](CC(C)C)C(=O)N[C@@H](CC(N)=O)C(N)=O)[C@@H](C)CC)C(C)C)[C@@H](C)O)[C@@H](C)O)C(C)C [St-VIP, stearoyl-VIP, reference compound] | – | – | 24 | 12 | – | – | – | – | – | – | – | – | – | – | – |
